Reference: ChEMBL document CHEMBL1151657, “Flavonoids from the Wood of Salix caprea as Inhibitors of Wood-Destroying Fungi” (1985)

Experiments:
Assay type in all cases: functional
Trichoderma viride [1] = assay: Antimicrobial activity against Trichoderma viride after 60 mins by agar diffusion method
Enterococcus faecalis = assay: Antimicrobial activity against Streptococcus faecalis after 30 mins by agar diffusion method
Escherichia coli = assay: Antimicrobial activity against Escherichia coli after 30 mins by agar diffusion method
[2] = test system: Trichophyton mentagrophytes; assay: Antimicrobial activity against Trichophyton mentagrophytes after 60 mins by agar diffusion method
Coniophora puteana [3] = assay: Antimicrobial activity against Coniophora puteana after 60 mins by agar diffusion method
Sporotrichum [4] = assay: Antimicrobial activity against Sporotrichum pulverulentum after 60 mins by agar diffusion method
Staphylococcus aureus = assay: Antimicrobial activity against Staphylococcus aureus after 30 mins by agar diffusion method
Coniophora puteana [5] = assay: Antimicrobial activity against Coniophora puteana at 0.01% concentration after 60 mins by agar diffusion method
Coniophora puteana [6] = assay: Antimicrobial activity against Coniophora puteana at 1% concentration after 60 mins by agar diffusion method
Trichoderma viride [7] = assay: Antimicrobial activity against Trichoderma viride at 1% concentration after 60 mins by agar diffusion method
Sporotrichum [8] = assay: Antimicrobial activity against Sporotrichum pulverulentum at 0.01% concentration after 60 mins by agar diffusion method
Sporotrichum [9] = assay: Antimicrobial activity against Sporotrichum pulverulentum at 1% concentration after 60 mins by agar diffusion method

SMILES: O=C1c2c(O)cc(O)cc2O[C@H](c2ccc(O)c(O)c2)[C@H]1O [(+)-TAXIFOLIN]
- inhibition zone (IZ) (Trichoderma viride [1]): 10 mm

SMILES: O=C1C[C@@H](c2ccc(O)cc2)Oc2cc(O)cc(O)c21 [NARINGENIN]
- inhibition zone (IZ) (Enterococcus faecalis): 10 mm
- inhibition zone (IZ) (Escherichia coli): 8 mm
- inhibition zone (IZ) [2]: 11 mm
- inhibition zone (IZ) (Coniophora puteana [3]): 10 mm
- inhibition zone (IZ) (Trichoderma viride [1]): 10 mm
- inhibition zone (IZ) (Sporotrichum [4]): 10 mm
- inhibition zone (IZ) (Staphylococcus aureus): 17.2 mm

SMILES: O=C1C[C@@H](c2ccc(O)cc2)Oc2cc(O[C@@H]3O[C@H](CO)[C@@H](O)[C@H](O)[C@H]3O)cc(O)c21 [PRUNIN]
- inhibition zone (IZ) (Sporotrichum [4]): 15 mm

SMILES: O=C1c2c(O)cc(O)cc2O[C@H](c2ccc(O)cc2)[C@H]1O [DIHYDROKAEMPFEROL]
- inhibition zone (IZ) (Coniophora puteana [3]): 10 mm

SMILES: Oc1cc(O)c2c(c1)O[C@H](c1ccc(O)c(O)c1)[C@@H](O)C2 [CIANIDANOL]
- inhibition zone (IZ) (Trichoderma viride [1]): 10 mm

SMILES: O=[N+]([O-])c1c(Cl)c(Cl)c(Cl)c(Cl)c1Cl [PENTACHLORONITROBENZENE]
- inhibition zone (IZ) (Coniophora puteana [3]): 10 mm
- inhibition zone (IZ) (Trichoderma viride [1]): 10 mm
- inhibition zone (IZ) (Sporotrichum [4]): <10 mm

SMILES: O=C1C2CC=CCC2C(=O)N1SC(Cl)(Cl)Cl (stereo unspecified) [CAPTAN]
- inhibition zone (IZ) (Coniophora puteana [5]): 10 mm
- inhibition zone (IZ) (Coniophora puteana [6]): >25 mm
- inhibition zone (IZ) (Trichoderma viride [7]): 15 mm
- inhibition zone (IZ) (Sporotrichum [8]): 15 mm
- inhibition zone (IZ) (Sporotrichum [9]): >25 mm

SMILES: COc1ccc(C2Oc3cc(O)cc(O)c3C(=O)C2O)cc1 (stereo unspecified) [DIHYDROKAEMPFERIDE]
- inhibition zone (IZ) (Coniophora puteana [3]): <10 mm
- inhibition zone (IZ) (Staphylococcus aureus): 8 mm
